What was measured:
[1] = tested on: Epidermal growth factor receptor (Homo sapiens), P00533 [L858R,T790M]; settings: Compound concentration 1000.0 nM
[2] = target: Dual specificity mitogen-activated protein kinase kinase 7 (Homo sapiens) (UniProt O14733); settings: Compound concentration 1000.0 nM
[3] = target: Cyclin-dependent kinase 5 (Homo sapiens) (UniProt Q00535); settings: Compound concentration 1000.0 nM
[4] = target: Ribosomal protein S6 kinase alpha-1 (Homo sapiens) (UniProt Q15418); settings: Compound concentration 1000.0 nM
[5] = target: TGF-beta receptor type-2 (Homo sapiens) (UniProt P37173); settings: Compound concentration 1000.0 nM
[6] = target: 5'-AMP-activated protein kinase catalytic subunit alpha-1 (Homo sapiens) (UniProt Q13131); settings: Compound concentration 1000.0 nM
[7] = target: Serine/threonine-protein kinase RIO1 (Homo sapiens) (UniProt Q9BRS2); settings: Compound concentration 1000.0 nM
[8] = target: Protein-tyrosine kinase 6 (Homo sapiens) (UniProt Q13882); settings: Compound concentration 1000.0 nM
[9] = target: Mitogen-activated protein kinase kinase kinase 13 (Homo sapiens) (UniProt O43283); settings: Compound concentration 1000.0 nM
[10] = target: Rhodopsin kinase GRK7 (Homo sapiens) (UniProt Q8WTQ7); settings: Compound concentration 1000.0 nM
[11] = target: STE20-like serine/threonine-protein kinase (Homo sapiens) (UniProt Q9H2G2); settings: Compound concentration 1000.0 nM
[12] = target: Tyrosine-protein kinase CSK (Homo sapiens) (UniProt P41240); settings: Compound concentration 1000.0 nM
[13] = target: Tyrosine-protein kinase receptor Tie-1 (Homo sapiens) (UniProt P35590); settings: Compound concentration 1000.0 nM
[14] = tested on: Epidermal growth factor receptor (Homo sapiens), P00533 [UNDEFINED MUTATION]; settings: Compound concentration 1000.0 nM
[15] = target: Mitogen-activated protein kinase 6 (Homo sapiens) (UniProt Q16659); settings: Compound concentration 1000.0 nM
Chain of Mitogen-activated protein kinase 6 (Homo sapiens) (Q16659 whole entry): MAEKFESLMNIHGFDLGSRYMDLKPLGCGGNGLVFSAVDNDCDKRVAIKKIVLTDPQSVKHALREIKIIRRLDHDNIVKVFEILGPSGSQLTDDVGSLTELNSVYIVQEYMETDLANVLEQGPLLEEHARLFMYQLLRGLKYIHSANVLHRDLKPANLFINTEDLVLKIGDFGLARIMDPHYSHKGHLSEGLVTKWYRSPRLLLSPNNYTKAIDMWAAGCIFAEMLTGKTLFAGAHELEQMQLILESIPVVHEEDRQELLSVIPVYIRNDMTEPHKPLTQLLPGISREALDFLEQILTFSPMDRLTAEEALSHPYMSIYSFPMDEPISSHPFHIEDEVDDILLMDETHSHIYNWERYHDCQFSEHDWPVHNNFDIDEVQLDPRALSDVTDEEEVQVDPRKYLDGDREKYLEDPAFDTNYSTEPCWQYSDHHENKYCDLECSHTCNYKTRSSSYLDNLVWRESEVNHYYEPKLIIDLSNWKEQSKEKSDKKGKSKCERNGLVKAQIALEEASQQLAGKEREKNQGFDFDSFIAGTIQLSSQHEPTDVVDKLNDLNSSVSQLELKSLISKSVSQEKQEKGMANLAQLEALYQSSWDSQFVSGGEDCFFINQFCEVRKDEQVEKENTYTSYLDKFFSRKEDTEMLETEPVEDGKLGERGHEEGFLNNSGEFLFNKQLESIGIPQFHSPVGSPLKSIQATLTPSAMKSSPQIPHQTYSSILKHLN

[16] = target: Cyclin-dependent kinase 11A (Homo sapiens) (UniProt Q9UQ88); settings: Compound concentration 1000.0 nM
Chain of Cyclin-dependent kinase 11A (Homo sapiens) (Q9UQ88 whole entry, the tested form may be a part): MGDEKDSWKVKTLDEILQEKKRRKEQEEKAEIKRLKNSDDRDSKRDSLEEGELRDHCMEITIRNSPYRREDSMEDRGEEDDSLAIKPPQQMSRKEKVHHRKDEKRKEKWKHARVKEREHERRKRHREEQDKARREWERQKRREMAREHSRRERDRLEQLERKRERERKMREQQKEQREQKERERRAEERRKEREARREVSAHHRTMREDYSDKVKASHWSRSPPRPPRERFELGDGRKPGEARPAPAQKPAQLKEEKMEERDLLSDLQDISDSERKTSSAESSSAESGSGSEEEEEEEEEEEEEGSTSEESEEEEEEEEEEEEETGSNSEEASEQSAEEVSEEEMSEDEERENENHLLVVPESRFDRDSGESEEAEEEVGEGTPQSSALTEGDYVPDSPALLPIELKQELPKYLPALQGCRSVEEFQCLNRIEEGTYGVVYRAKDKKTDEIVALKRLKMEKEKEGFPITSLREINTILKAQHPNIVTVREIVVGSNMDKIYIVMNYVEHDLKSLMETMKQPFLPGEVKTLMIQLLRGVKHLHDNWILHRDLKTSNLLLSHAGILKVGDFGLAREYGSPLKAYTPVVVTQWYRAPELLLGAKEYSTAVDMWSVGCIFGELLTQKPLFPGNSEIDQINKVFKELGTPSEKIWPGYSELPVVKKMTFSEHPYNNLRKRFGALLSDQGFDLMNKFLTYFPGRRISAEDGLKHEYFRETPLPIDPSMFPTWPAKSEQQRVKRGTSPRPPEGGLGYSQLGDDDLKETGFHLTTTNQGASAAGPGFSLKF

[17] = target: Epithelial discoidin domain-containing receptor 1 (Homo sapiens) (UniProt Q08345); settings: Compound concentration 1000.0 nM
Chain of Epithelial discoidin domain-containing receptor 1 (Homo sapiens) (Q08345 whole entry, the tested form may be a part): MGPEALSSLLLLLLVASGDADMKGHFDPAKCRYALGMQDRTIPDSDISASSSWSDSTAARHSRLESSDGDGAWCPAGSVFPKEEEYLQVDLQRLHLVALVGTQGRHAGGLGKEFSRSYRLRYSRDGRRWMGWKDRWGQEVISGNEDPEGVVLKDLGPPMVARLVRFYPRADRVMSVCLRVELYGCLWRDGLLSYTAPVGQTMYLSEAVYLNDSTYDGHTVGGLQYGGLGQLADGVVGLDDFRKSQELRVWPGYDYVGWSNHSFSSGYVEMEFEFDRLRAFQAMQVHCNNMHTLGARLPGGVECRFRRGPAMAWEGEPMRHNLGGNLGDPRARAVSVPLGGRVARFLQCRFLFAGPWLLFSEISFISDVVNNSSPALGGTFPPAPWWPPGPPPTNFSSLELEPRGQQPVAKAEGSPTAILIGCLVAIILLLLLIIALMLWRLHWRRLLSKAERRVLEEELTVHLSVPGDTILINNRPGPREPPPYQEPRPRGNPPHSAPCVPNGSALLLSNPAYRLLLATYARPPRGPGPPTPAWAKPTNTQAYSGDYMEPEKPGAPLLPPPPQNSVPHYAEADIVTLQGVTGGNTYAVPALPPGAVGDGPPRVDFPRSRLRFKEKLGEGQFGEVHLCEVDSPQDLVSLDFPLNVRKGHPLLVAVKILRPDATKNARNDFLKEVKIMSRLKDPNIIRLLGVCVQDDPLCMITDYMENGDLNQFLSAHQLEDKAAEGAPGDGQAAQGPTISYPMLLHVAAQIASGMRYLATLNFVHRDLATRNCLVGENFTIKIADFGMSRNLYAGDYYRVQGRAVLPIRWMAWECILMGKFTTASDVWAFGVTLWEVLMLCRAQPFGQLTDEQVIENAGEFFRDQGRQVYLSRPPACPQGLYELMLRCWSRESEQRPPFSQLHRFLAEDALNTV

[18] = target: Tyrosine-protein kinase SYK (Homo sapiens) (UniProt P43405); settings: Compound concentration 1000.0 nM
[19] = target: Serine/threonine-protein kinase tousled-like 1 (Homo sapiens) (UniProt Q9UKI8); settings: Compound concentration 1000.0 nM
Chain of Serine/threonine-protein kinase tousled-like 1 (Homo sapiens) (Q9UKI8 whole entry): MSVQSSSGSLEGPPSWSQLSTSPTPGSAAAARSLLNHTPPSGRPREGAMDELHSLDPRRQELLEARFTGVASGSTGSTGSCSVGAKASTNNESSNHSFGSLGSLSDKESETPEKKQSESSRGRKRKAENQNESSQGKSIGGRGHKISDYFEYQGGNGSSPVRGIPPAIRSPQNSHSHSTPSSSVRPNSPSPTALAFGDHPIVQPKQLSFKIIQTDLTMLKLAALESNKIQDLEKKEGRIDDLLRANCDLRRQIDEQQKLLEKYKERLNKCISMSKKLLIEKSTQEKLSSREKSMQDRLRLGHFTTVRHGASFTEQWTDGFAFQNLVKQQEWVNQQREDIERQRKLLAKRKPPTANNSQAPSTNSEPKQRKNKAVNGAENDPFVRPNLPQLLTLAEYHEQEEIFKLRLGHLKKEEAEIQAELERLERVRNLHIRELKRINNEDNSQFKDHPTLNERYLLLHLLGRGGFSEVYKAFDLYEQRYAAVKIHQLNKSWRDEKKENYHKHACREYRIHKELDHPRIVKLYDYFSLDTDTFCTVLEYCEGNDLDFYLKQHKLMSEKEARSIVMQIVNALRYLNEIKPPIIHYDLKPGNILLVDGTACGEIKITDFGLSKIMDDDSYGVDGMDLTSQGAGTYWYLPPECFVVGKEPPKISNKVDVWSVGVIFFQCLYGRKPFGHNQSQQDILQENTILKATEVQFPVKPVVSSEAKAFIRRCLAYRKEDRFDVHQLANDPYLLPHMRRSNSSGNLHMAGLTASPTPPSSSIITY

[20] = target: Non-receptor tyrosine-protein kinase TYK2 (Homo sapiens) (UniProt P29597); settings: Compound concentration 1000.0 nM
[21] = tested on: Leucine-rich repeat serine/threonine-protein kinase 2 (Homo sapiens), Q5S007 [G2019S]; settings: Compound concentration 1000.0 nM
[22] = target: Serine/threonine-protein kinase RIO3 (Homo sapiens) (UniProt O14730); settings: Compound concentration 1000.0 nM
[23] = target: Serine/threonine-protein kinase tousled-like 2 (Homo sapiens) (UniProt Q86UE8); settings: Compound concentration 1000.0 nM
[24] = target: D(2) dopamine receptor (Homo sapiens) (UniProt P14416); settings: Compound concentration 10.0 uM
[25] = target: Bone morphogenetic protein receptor type-2 (Homo sapiens) (UniProt Q13873); settings: Compound concentration 1000.0 nM
[26] = target: Dual specificity mitogen-activated protein kinase kinase 2 (Homo sapiens) (UniProt P36507); settings: Compound concentration 1000.0 nM
[27] = target: Ephrin type-A receptor 3 (Homo sapiens) (UniProt P29320); settings: Compound concentration 1000.0 nM
[28] = target: Activin receptor type-2B (Homo sapiens) (UniProt Q13705); settings: Compound concentration 1000.0 nM
[29] = target: Serine/threonine-protein kinase 26 (Homo sapiens) (UniProt Q9P289); settings: Compound concentration 1000.0 nM
[30] = target: Ephrin type-A receptor 8 (Homo sapiens) (UniProt P29322); settings: Compound concentration 1000.0 nM
[31] = target: Receptor-interacting serine/threonine-protein kinase 4 (Homo sapiens) (UniProt P57078); settings: Compound concentration 1000.0 nM
[32] = target: Tyrosine-protein kinase Blk (Homo sapiens) (UniProt P51451); settings: Compound concentration 1000.0 nM
Chain of Tyrosine-protein kinase Blk (Homo sapiens) (P51451 2-505 limits assumed): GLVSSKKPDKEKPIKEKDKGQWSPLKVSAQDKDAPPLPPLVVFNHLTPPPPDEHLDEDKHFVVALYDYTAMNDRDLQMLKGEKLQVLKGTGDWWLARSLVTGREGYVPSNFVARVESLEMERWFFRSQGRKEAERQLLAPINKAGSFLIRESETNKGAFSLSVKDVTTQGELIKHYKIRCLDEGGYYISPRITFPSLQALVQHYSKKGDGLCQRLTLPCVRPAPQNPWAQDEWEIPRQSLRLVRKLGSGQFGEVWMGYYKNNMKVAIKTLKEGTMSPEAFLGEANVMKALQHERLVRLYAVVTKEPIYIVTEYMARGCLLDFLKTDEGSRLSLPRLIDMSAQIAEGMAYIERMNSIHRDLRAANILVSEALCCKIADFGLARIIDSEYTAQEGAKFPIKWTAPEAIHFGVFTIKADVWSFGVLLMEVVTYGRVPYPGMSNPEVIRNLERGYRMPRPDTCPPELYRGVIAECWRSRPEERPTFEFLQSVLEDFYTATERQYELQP

[33] = tested on: Tyrosine-protein kinase ABL1 (Homo sapiens), P00519 [Y253F]; settings: Compound concentration 1000.0 nM
[34] = target: Tyrosine-protein kinase receptor TYRO3 (Homo sapiens) (UniProt Q06418); settings: Compound concentration 1000.0 nM
[35] = target: Calcium/calmodulin-dependent protein kinase type IV (Homo sapiens) (UniProt Q16566); settings: Compound concentration 1000.0 nM
[36] = target: Phosphatidylinositol 4,5-bisphosphate 3-kinase catalytic subunit gamma isoform (Homo sapiens) (UniProt P48736); settings: Compound concentration 1000.0 nM
[37] = target: Mitogen-activated protein kinase kinase kinase 7 (Homo sapiens) (UniProt O43318); settings: Compound concentration 1000.0 nM
Chain of Mitogen-activated protein kinase kinase kinase 7 (Homo sapiens) (O43318 whole entry): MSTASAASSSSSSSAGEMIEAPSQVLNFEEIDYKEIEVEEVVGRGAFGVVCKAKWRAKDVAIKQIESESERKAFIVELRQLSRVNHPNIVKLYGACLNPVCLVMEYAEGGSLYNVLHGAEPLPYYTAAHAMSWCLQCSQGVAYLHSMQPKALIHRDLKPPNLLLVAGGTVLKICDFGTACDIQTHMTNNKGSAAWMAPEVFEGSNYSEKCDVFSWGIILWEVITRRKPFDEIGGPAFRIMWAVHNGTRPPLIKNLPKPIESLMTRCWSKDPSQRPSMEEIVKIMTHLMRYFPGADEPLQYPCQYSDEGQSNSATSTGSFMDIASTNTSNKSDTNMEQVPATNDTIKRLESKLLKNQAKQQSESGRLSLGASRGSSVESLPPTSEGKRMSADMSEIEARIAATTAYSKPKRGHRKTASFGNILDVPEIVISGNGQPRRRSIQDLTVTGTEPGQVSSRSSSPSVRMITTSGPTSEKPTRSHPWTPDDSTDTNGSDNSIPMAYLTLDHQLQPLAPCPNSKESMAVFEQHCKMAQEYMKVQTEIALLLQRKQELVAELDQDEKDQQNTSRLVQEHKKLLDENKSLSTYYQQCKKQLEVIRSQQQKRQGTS

[38] = target: Serine/threonine-protein kinase BRSK1 (Homo sapiens) (UniProt Q8TDC3); settings: Compound concentration 1000.0 nM
[39] = target: Tyrosine-protein kinase Fgr (Homo sapiens) (UniProt P09769); settings: Compound concentration 1000.0 nM
[40] = tested on: Proto-oncogene tyrosine-protein kinase receptor Ret (Homo sapiens), P07949 [M918T]; settings: Compound concentration 1000.0 nM
[41] = target: Tyrosine-protein kinase ABL1 (Homo sapiens) (UniProt P00519); settings: Compound concentration 1000.0 nM
[42] = target: NUAK family SNF1-like kinase 2 (Homo sapiens) (UniProt Q9H093); settings: Compound concentration 1000.0 nM
[43] = target: cAMP-dependent protein kinase catalytic subunit PRKX (Homo sapiens) (UniProt P51817); settings: Compound concentration 1000.0 nM
[44] = target: Protein kinase C eta type (Homo sapiens) (UniProt P24723); settings: Compound concentration 1000.0 nM
Chain of Protein kinase C eta type (Homo sapiens) (P24723 whole entry, canonical isoform): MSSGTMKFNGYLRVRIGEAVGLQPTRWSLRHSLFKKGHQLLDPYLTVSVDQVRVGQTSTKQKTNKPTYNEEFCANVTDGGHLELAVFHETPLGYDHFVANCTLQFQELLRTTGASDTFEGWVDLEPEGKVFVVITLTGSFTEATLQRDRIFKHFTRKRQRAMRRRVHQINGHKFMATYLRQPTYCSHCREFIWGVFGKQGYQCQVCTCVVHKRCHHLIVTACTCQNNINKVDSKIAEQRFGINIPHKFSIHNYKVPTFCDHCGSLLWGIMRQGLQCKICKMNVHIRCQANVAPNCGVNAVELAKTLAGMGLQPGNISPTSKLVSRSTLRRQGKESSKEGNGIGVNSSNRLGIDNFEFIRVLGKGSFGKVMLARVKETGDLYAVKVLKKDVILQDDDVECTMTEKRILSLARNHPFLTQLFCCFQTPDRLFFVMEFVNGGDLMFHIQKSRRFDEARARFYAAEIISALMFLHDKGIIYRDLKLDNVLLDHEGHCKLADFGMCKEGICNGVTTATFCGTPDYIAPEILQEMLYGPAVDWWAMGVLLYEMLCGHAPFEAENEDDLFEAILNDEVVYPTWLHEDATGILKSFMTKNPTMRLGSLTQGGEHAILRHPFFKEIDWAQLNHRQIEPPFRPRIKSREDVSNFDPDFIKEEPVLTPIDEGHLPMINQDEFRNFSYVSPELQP

[45] = target: Phosphatidylinositol 4,5-bisphosphate 3-kinase catalytic subunit beta isoform (Homo sapiens) (UniProt P42338); settings: Compound concentration 1000.0 nM

C[C@H](NC(=O)c1cnc2n1[C@](C)(Cc1ccc(C#N)cc1)C(=O)N2c1cc(Cl)c(F)c(Cl)c1)C(=O)NC1(c2ccccn2)CC1 [BI 1950]
inactive: residual activity [1] 82% | residual activity [2] 100% | residual activity [3] 100% | residual activity [4] 100% | residual activity [5] 100% | residual activity [6] 100% | residual activity [7] 100% | residual activity [8] 92% | residual activity [9] 100% | residual activity [10] 100% | residual activity [11] 100% | residual activity [12] 100% | residual activity [13] 100% | residual activity [14] 82% | residual activity [15] 100% | residual activity [16] 100% | residual activity [17] 100% | residual activity [18] 100% | residual activity [19] 100% | residual activity [20] 100% | residual activity [21] 100% | residual activity [22] 100% | residual activity [23] 59% | inhibition [24] 7.62% | residual activity [25] 100% | residual activity [26] 90% | residual activity [27] 88% | residual activity [28] 100% | residual activity [29] 98% | residual activity [30] 100% | residual activity [31] 100% | residual activity [32] 98% | residual activity [33] 100% | residual activity [34] 100% | residual activity [35] 100% | residual activity [36] 86% | residual activity [37] 97% | residual activity [38] 100% | residual activity [39] 100% | residual activity [40] 100% | residual activity [41] 100% | residual activity [42] 100% | residual activity [43] 100% | residual activity [44] 90% | residual activity [45] 99%

C[C@@]1(Cc2ccc(C#N)cc2)C(=O)N(c2cc(Cl)cc(Cl)c2)c2ncc(C(=O)NC3(c4nc(C5CCC5)no4)CC3)n21 [BI 9446]
inactive: residual activity [1] 79% | residual activity [2] 100% | residual activity [3] 100% | residual activity [4] 100% | residual activity [5] 99% | residual activity [6] 100% | residual activity [7] 100% | residual activity [8] 100% | residual activity [9] 100% | residual activity [10] 100% | residual activity [11] 100% | residual activity [12] 98% | residual activity [13] 100% | residual activity [14] 58% | residual activity [15] 100% | residual activity [16] 100% | residual activity [17] 81% | residual activity [18] 100% | residual activity [19] 100% | residual activity [20] 100% | residual activity [21] 100% | residual activity [22] 100% | residual activity [23] 97% | inhibition [24] 16.4% | residual activity [25] 100% | residual activity [26] 99% | residual activity [27] 83% | residual activity [28] 100% | residual activity [29] 100% | residual activity [30] 100% | residual activity [31] 100% | residual activity [32] 100% | residual activity [33] 95% | residual activity [34] 100% | residual activity [35] 100% | residual activity [36] 95% | residual activity [37] 96% | residual activity [38] 100% | residual activity [39] 100% | residual activity [40] 100% | residual activity [41] 100% | residual activity [42] 100% | residual activity [43] 100% | residual activity [44] 100% | residual activity [45] 97%

Reference: ChEMBL document CHEMBL4507282, “Data for DCP probe BI-1950” (2021)
